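A five-concentration, 48-hour dose response in 96-well plates underlies each endpoint, interpolated linearly between surrounding concentrations. At the GI50, growth is halved.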 Calls of active or inactive are those of the source. No stated cut-off is given here; in the data, active = GI50 up to about 1.1 µM and inactive = higher.
Key:
Assay in all cases: growth of human tumour cells (NCI), 48 h
K562 = system: K562
UACC-62 = system: UACC-62
MCF7 = system: MCF7
OVCAR-5 = system: OVCAR-5
HCT-116 = system: HCT-116
A549 = system: A549
COLO 205 = system: COLO 205
SF-268 = system: SF-268
RXF 393 = system: RXF 393
MDA-N = system: MDA-N
IGROV-1 = system: IGROV-1
SNB-75 = system: SNB-75
SK-MEL-5 = system: SK-MEL-5
SK-MEL-28 = system: SK-MEL-28
HOP-62 = system: HOP-62
HCT-15 = system: HCT-15
BT-549 = system: BT-549
MOLT-4 = system: MOLT-4
HT-29 = system: HT-29
RPMI-8226 = system: RPMI-8226
SNB-19 = system: SNB-19
HOP-92 = system: HOP-92
KM12 = system: KM12
786-0 = system: 786-0
T47D = system: T47D
TK-10 = system: TK-10
Hs-578T = system: Hs-578T
M14 = system: M14
OVCAR-4 = system: OVCAR-4
U-251 = system: U-251
PC-3 = system: PC-3
UACC-257 = system: UACC-257
OVCAR-8 = system: OVCAR-8
HCC 2998 = system: HCC 2998
SF-295 = system: SF-295
SW-620 = system: SW-620
MDA-MB-231 = system: MDA-MB-231
UO-31 = system: UO-31
Malme-3M = system: Malme-3M
ACHN = system: ACHN
OVCAR-3 = system: OVCAR-3
NCI-H23 = system: NCI-H23
MDA-MB-435 = system: MDA-MB-435
A498 = system: A498
SK-OV-3 = system: SK-OV-3
CAKI-1 = system: CAKI-1
NCI-H460 = system: NCI-H460
DU-145 = system: DU-145
NCI-H522 = system: NCI-H522
NCI/ADR-RES = system: NCI/ADR-RES
EKVX = system: EKVX
SK-MEL-2 = system: SK-MEL-2
SR = system: SR
SN12C = system: SN12C
SF-539 = system: SF-539
HL-60 = system: HL-60
LOX IMVI = system: LOX IMVI
NCI-H226 = system: NCI-H226
CCRF-CEM = system: CCRF-CEM

COC(=O)C1CC(C=[N+](C)C)=C(SC)N1C(=O)OCc1ccccc1 (stereo not given)
GI50 (K562): > 100 µM (inactive)
GI50 (UACC-62): > 100 µM (inactive)
GI50 (MCF7): 95.9 µM (inactive)
GI50 (OVCAR-5): > 100 µM (inactive)
GI50 (HCT-116): > 100 µM (inactive)
GI50 (A549): > 100 µM (inactive)
GI50 (COLO 205): > 100 µM (inactive)
GI50 (SF-268): > 100 µM (inactive)
GI50 (RXF 393): > 100 µM (inactive)
GI50 (MDA-N): > 100 µM (inactive)
GI50 (IGROV-1): > 100 µM (inactive)
GI50 (SNB-75): > 100 µM (inactive)
GI50 (SK-MEL-5): > 100 µM (inactive)
GI50 (SK-MEL-28): > 100 µM (inactive)
GI50 (HOP-62): > 100 µM (inactive)
GI50 (HCT-15): > 100 µM
GI50 (BT-549): > 100 µM (inactive)
GI50 (MOLT-4): > 100 µM (inactive)
GI50 (HT-29): > 100 µM (inactive)
GI50 (RPMI-8226): > 100 µM (inactive)
GI50 (SNB-19): > 100 µM (inactive)
GI50 (HOP-92): > 100 µM (inactive)
GI50 (KM12): > 100 µM (inactive)
GI50 (786-0): > 100 µM (inactive)
GI50 (T47D): > 100 µM (inactive)
GI50 (TK-10): > 100 µM (inactive)
GI50 (Hs-578T): > 100 µM (inactive)
GI50 (M14): > 100 µM (inactive)
GI50 (OVCAR-4): > 100 µM (inactive)
GI50 (U-251): > 100 µM (inactive)
GI50 (PC-3): > 100 µM (inactive)
GI50 (UACC-257): > 100 µM (inactive)
GI50 (OVCAR-8): > 100 µM (inactive)
GI50 (HCC 2998): > 100 µM (inactive)
GI50 (SF-295): > 100 µM (inactive)
GI50 (SW-620): > 100 µM (inactive)
GI50 (MDA-MB-231): > 100 µM (inactive)
GI50 (UO-31): > 100 µM (inactive)
GI50 (Malme-3M): > 100 µM (inactive)
GI50 (ACHN): > 100 µM (inactive)
GI50 (OVCAR-3): > 100 µM (inactive)
GI50 (NCI-H23): > 100 µM (inactive)
GI50 (MDA-MB-435): > 100 µM (inactive)
GI50 (A498): > 100 µM (inactive)
GI50 (SK-OV-3): > 100 µM (inactive)
GI50 (CAKI-1): > 100 µM (inactive)
GI50 (NCI-H460): 30.8 µM (inactive)
GI50 (DU-145): > 100 µM (inactive)
GI50 (NCI-H522): > 100 µM (inactive)
GI50 (NCI/ADR-RES): > 100 µM (inactive)
GI50 (EKVX): > 100 µM (inactive)
GI50 (SK-MEL-2): > 100 µM (inactive)
GI50 (SR): > 100 µM (inactive)

O=C(NN=C1NCCN1)c1ccco1
GI50 (K562): > 100 µM (inactive)
GI50 (UACC-62): > 100 µM (inactive)
GI50 (MCF7): > 100 µM (inactive)
GI50 (OVCAR-5): > 100 µM (inactive)
GI50 (HCT-116): > 100 µM (inactive)
GI50 (A549): > 100 µM (inactive)
GI50 (COLO 205): > 100 µM (inactive)
GI50 (SF-268): > 100 µM (inactive)
GI50 (RXF 393): > 100 µM (inactive)
GI50 (MDA-N): > 100 µM (inactive)
GI50 (SN12C): > 100 µM (inactive)
GI50 (IGROV-1): > 100 µM (inactive)
GI50 (SNB-75): > 100 µM (inactive)
GI50 (SK-MEL-5): > 100 µM (inactive)
GI50 (SK-MEL-28): > 100 µM (inactive)
GI50 (HOP-62): > 100 µM (inactive)
GI50 (SF-539): > 100 µM (inactive)
GI50 (HCT-15): > 100 µM
GI50 (BT-549): > 100 µM (inactive)
GI50 (MOLT-4): > 100 µM (inactive)
GI50 (HT-29): > 100 µM (inactive)
GI50 (RPMI-8226): > 100 µM (inactive)
GI50 (SNB-19): > 100 µM (inactive)
GI50 (HOP-92): > 100 µM (inactive)
GI50 (HL-60): > 100 µM (inactive)
GI50 (KM12): > 100 µM (inactive)
GI50 (786-0): > 100 µM (inactive)
GI50 (T47D): > 100 µM (inactive)
GI50 (TK-10): > 100 µM (inactive)
GI50 (Hs-578T): > 100 µM (inactive)
GI50 (M14): > 100 µM (inactive)
GI50 (OVCAR-4): > 100 µM (inactive)
GI50 (U-251): > 100 µM (inactive)
GI50 (PC-3): > 100 µM (inactive)
GI50 (UACC-257): > 100 µM (inactive)
GI50 (OVCAR-8): > 100 µM (inactive)
GI50 (HCC 2998): > 100 µM (inactive)
GI50 (SF-295): > 100 µM (inactive)
GI50 (SW-620): > 100 µM (inactive)
GI50 (MDA-MB-231): > 100 µM (inactive)
GI50 (UO-31): > 100 µM (inactive)
GI50 (Malme-3M): > 100 µM (inactive)
GI50 (ACHN): > 100 µM (inactive)
GI50 (OVCAR-3): > 100 µM (inactive)
GI50 (LOX IMVI): > 100 µM (inactive)
GI50 (NCI-H23): > 100 µM (inactive)
GI50 (MDA-MB-435): > 100 µM (inactive)
GI50 (SK-OV-3): > 100 µM (inactive)
GI50 (NCI-H460): > 100 µM (inactive)
GI50 (NCI-H226): 62.4 µM (inactive)
GI50 (DU-145): > 100 µM (inactive)
GI50 (NCI-H522): > 100 µM (inactive)
GI50 (NCI/ADR-RES): > 100 µM (inactive)
GI50 (EKVX): > 100 µM (inactive)
GI50 (CCRF-CEM): > 100 µM (inactive)
GI50 (SK-MEL-2): > 100 µM (inactive)
GI50 (SR): > 100 µM (inactive)
